Test results reported in patent US20230293629A1, “METHODS FOR ATTENUATING RELEASE OF INFLAMMATORY MEDIATORS AND PEPTIDES USEFUL THEREIN” (BIOMARCK PHARMACEUTICALS LTD., priority 2006, published 2023).
Where a SMILES comes first, the peptide text is derived from it. Where no end group is shown, it is not given here. The star is where a group is joined. Myristoyl = CCCCCCCCCCCCCC(=O)*

Assays:
HL-60 clone 15 cells = assay: PMA-stimulated EPO release from HL-60 clone 15 cells; format: cell-based, human; settings: for % Inhibition EPO: 50 μM test peptide, two hour incubation with 100 nM PMA, HL-60 clone 15 cells
Method in brief: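 HL-60 clone 15 cells were differentiated to an eosinophil-like state with 0.5 mM butyric acid for 5 days. At 2.5×10^6 cells/ml in phenol red-free RPMI, they were preincubated 10 min at 37 °C with peptide, then stimulated with PMA for up to 2 h. Released EPO was measured by TMB oxidation (A450) and given as percentage of total content in triton X-100 lysates.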

human neutrophils = assay: PMA-stimulated MPO release from isolated human neutrophils (TMB assay); format: cell-based; settings: for MPO activity relative to control as 100%: 30 min after 100 nM PMA, PMA control reference about 275%; for % Inhibition MPO: 100 μM test peptide, two hour incubation with 100 nM PMA, human neutrophils; for increase of human neutrophil MPO release versus control level: 100 nM PMA
Excerpt: Human neutrophil isolation—These studies were approved by the human studies Institutional Review Board (IRB). Human neutrophils were isolated as previously described (see Takashi S, OkuboY, Horie S. Contribution of CD54 to human eosinophil and neutrophil superoxide production. J Appl Physiol 2001; 91:613-622) with slight modifications. Briefly, heparinized venous blood was obtained from normal healthy volunteers, diluted with RPMI-1640 (Cellgro; Mediatech, Inc., Herndon, VA) at a ratio of 1:1, layered onto a Histopaque (density, 1.077 g/ml; Sigma-Aldrich Co., St. Louis, MO) and centrifuged at 400 g for 20 min at 4° C. The supernatant and mononuclear cells at the interface were carefully removed, and erythrocytes in the sediment were lysed in chilled distilled water. Isolated granulocytes were washed twice with Hanks' balanced salts solution (HBSS) and resuspended in HBSS on ice.
Measurement of released neutrophil MPO activity—For measurement of MPO release, purified human neutrophils suspended in HBSS were aliquoted at 4×10^6 cells/ml in 15 ml tubes and preincubated with either 50 or 100 μM of MANS, RNS, or one of the peptides of invention for 10 min at 37° C. The cells then were stimulated with 100 nM phorbol 12-myristate 13-acetate (PMA) for up to 3 hrs. A control reference (PMA control reference) was established using purified human neutrophils suspended in HBSS aliquoted at 4×10^6 cells/ml in 15 mL tubes and stimulated with 100 nM phorbol 12-myristate 13-acetate (PMA) in the absence of a test peptide for the same time periods. The reaction was terminated by placing the tubes on ice and centrifugation at 400 g for 5 min at 4° C.
MPO activity in the cell supernatant was assayed using tetramethylbenzidine (TMB) based on a previously established technique (Abdel-Latif D, Steward M, Macdonald D L, Francis G A., Dinauer M C, Lacy P. Rac2 is critical for neutrophil primary granule exocytosis. Blood 2004; 104:832-839). Briefly, 100 μL of TMB substrate solution was added to 50 μL of cell supernatants or standard human MPO (EMD Biosciences, Inc., San Diego, CA) in a 96-well microplate followed by incubation at room temperature for 15 min. The reaction was terminated by addition of 50 μL of 1M […] and absorbance was read at 450 nm in a spectrophotometric microplate reader (VERSA max, Molecular Devices, Sunnyvale, CA).
The data presented in the table below represents 100 μM concentration of test peptides and a two hour incubation with 100 nM PMA.

[1] = Qualitative solubility of peptides in 0.5 N saline, pH 6.5
[2] = any of the time points or concentrations tested

CCCCCCCCCCCCCC(=O)NCC(=O)N[C@@H](C)C(=O)N[C@@H](CCC(N)=O)C(=O)N[C@@H](Cc1ccccc1)C(=O)N[C@@H](CO)C(=O)N[C@@H](CCCCN)C(=O)N[C@H](C(=O)N[C@@H](C)C(=O)N[C@@H](C)C(=O)N[C@@H](CCCCN)C(=O)NCC(=O)N[C@@H](CCC(=O)O)C(=O)N[C@@H](C)C(=O)N[C@@H](C)C(=O)N[C@@H](C)C(=O)N[C@@H](CCC(=O)O)C(=O)N[C@@H](CCCNC(=N)N)C(=O)N1CCC[C@H]1C(=O)NCC(=O)N[C@@H](CCC(=O)O)C(=O)N[C@@H](C)C(=O)N[C@@H](C)C(=O)N[C@H](C(=O)N[C@@H](C)C(=O)O)C(C)C)[C@@H](C)O [MANS] (Myristoyl-GAQFSKTAAKGEAAAERPGEAAVA-OH; C-terminus assumed)
reduction in EPO activity relative to the PMA control reference (HL-60 clone 15 cells; 10 μM, 1 hour): about 15%
EPO activity relative to control as 100% (HL-60 clone 15 cells; 10 μM, 1 hour, PMA control reference about 110%): about 95%
reduction in EPO activity relative to the PMA control reference (HL-60 clone 15 cells; 10 μM, 2 hour): about 10%
EPO activity relative to control as 100% (HL-60 clone 15 cells; 10 μM, 2 hour, PMA control reference about 145%): about 130%
% Inhibition EPO (HL-60 clone 15 cells): 46.1%
reduction in EPO activity relative to the PMA control reference (HL-60 clone 15 cells; 50 μM, 1 hour): about 30%
EPO activity relative to control as 100% (HL-60 clone 15 cells; 50 μM, 1 hour, PMA control reference about 110%): about 78%
reduction in EPO activity relative to the PMA control reference (HL-60 clone 15 cells; 50 μM, 2 hour): about 50%
EPO activity relative to control as 100% (HL-60 clone 15 cells; 50 μM, 2 hour, PMA control reference about 145%): about 70%
reduction in EPO activity relative to the PMA control reference (HL-60 clone 15 cells; 100 μM, 1 hour): about 40%
EPO activity relative to control as 100% (HL-60 clone 15 cells; 100 μM, 1 hour, PMA control reference about 110%): about 65%
reduction in EPO activity relative to the PMA control reference (HL-60 clone 15 cells; 100 μM, 2 hour): about 50%
EPO activity relative to control as 100% (HL-60 clone 15 cells; 100 μM, 2 hour, PMA control reference about 145%): about 72%
MPO activity relative to control as 100% (human neutrophils; 50 μM): about 275%
reduction in MPO release versus the PMA control reference (human neutrophils; 50 μM, 1 hr): about 15%
MPO activity % of control (human neutrophils; 50 μM, 1 hr, PMA control reference about 340%): about 290%
reduction of MPO release versus the PMA control reference (human neutrophils; 50 μM, 2 hours): approximately 30%
MPO activity % of control (human neutrophils; 50 μM, 2 hours, PMA control reference about 540%): about 375%
reduction of MPO release versus the PMA control reference (human neutrophils; 50 μM, 3 hours): approximately 33%
MPO activity % of control (human neutrophils; 50 μM, 3 hours, PMA control reference about 560%): about 375%
% Inhibition MPO (human neutrophils): 31.2%
MPO activity relative to control as 100% (human neutrophils; 100 μM): about 305%
reduction in MPO release versus the PMA control reference (human neutrophils; 100 μM, 1 hr): about 25%
MPO activity % of control (human neutrophils; 100 μM, 1 hr, PMA control reference about 340%): about 260%
reduction of MPO release versus the PMA control reference (human neutrophils; 100 μM, 2 hours): approximately 45%
MPO activity % of control (human neutrophils; 100 μM, 2 hours, PMA control reference about 540%): about 295%
reduction of MPO release versus the PMA control reference (human neutrophils; 100 μM, 3 hours): approximately 40%
MPO activity % of control (human neutrophils; 100 μM, 3 hours, PMA control reference about 560%): about 320%
effect on PMA-induced MPO release (human neutrophils; 50 and 100 μM, 30 min): no detected effect

CCCCCCCCCCCCCC(=O)O[C@@H]1[C@@H](C)[C@@]2(O)[C@@H](C=C(CO)C[C@]3(O)C(=O)C(C)=C[C@@H]23)[C@@H]2C(C)(C)[C@]12OC(C)=O [PMA, phorbol 12-myristate 13-acetate]
increase of human neutrophil MPO release versus control level (human neutrophils; 30 min): approximately threefold
increase of human neutrophil MPO release versus control level (human neutrophils; after 3 hrs): 5-6 fold

CCCCCCCCCCCCCC(=O)NCC(=O)N[C@H](C(=O)N[C@@H](C)C(=O)N1CCC[C@H]1C(=O)N[C@@H](C)C(=O)N[C@@H](C)C(=O)N[C@@H](CCC(=O)O)C(=O)NCC(=O)N[C@@H](C)C(=O)NCC(=O)N[C@@H](C)C(=O)N[C@@H](CCC(=O)O)C(=O)N[C@H](C(=O)N[C@@H](CCCCN)C(=O)N[C@@H](CCCNC(=N)N)C(=O)N[C@@H](C)C(=O)N[C@@H](CO)C(=O)N[C@@H](C)C(=O)N[C@@H](CCC(=O)O)C(=O)N[C@@H](C)C(=O)N[C@@H](CCCCN)C(=O)N[C@@H](CCC(N)=O)C(=O)N[C@@H](C)C(=O)N[C@@H](Cc1ccccc1)C(=O)O)C(C)C)[C@@H](C)O [RNS, reference compound] (Myristoyl-GTAPAAEGAGAEVKRASAEAKQAF-OH; C-terminus assumed)
% Inhibition EPO (HL-60 clone 15 cells): 0%
effect on PMA-enhanced EPO release (HL-60 clone 15 cells; [2]): did not affect
solubility [1]: > 15 mg/mL
% Inhibition MPO (human neutrophils): 0%
effect on PMA-induced MPO release (human neutrophils; [2]): did not affect

Ac-GAQFSKTAAK [Ac-GAQFSKTAAK]
% Inhibition EPO (HL-60 clone 15 cells): 35.7%
solubility [1]: > 100 mg/mL
% Inhibition MPO (human neutrophils): 25.3%

Ac-GAQFSKTAAKGEAAAERPGEAAVA
% Inhibition EPO (HL-60 clone 15 cells): 33.7%
solubility [1]: > 250 mg/mL
